ChEMBL document CHEMBL6121003, “Design, synthesis, and pharmacological evaluation of triazine-based PI3K/mTOR inhibitors for the potential treatment of non-small cell lung cancer” (Eur J Med Chem, 2025)

Key:
[1] = molecular target: Phosphatidylinositol 4,5-bisphosphate 3-kinase catalytic subunit alpha isoform (Homo sapiens, UniProt P42336)
Description: Inhibition of PI3Kalpha (unknown origin) using PIP2 as substrate measured after 1 hr in presence of ATP by ADP-glo luminescence assay

PC-9 = assay: Antiproliferative activity against human PC-9 cells measured after 48 hrs by MTT assay; assay type: functional, cell-based; settings: PC-9, 48 h
HCC827 = assay: Antiproliferative activity against human HCC827 cells measured after 48 hrs by MTT assay; assay type: functional, cell-based; settings: HCC827, 48 h
[2] = molecular target: Serine/threonine-protein kinase mTOR (Homo sapiens, UniProt P42345); assay: Inhibition of mTOR (unknown origin) using ULight-4E-BP1 as substrate measured after 45 mins in presence of ATP by Lance ultra assay
CYP3A4 = CYP3A4 (Homo sapiens, UniProt P08684); assay: Inhibition of CYP3A4 (unknown origin) at 10 uM relative to control; assay type: ADME
CYP3A4, sequence (P08684 whole entry, canonical isoform): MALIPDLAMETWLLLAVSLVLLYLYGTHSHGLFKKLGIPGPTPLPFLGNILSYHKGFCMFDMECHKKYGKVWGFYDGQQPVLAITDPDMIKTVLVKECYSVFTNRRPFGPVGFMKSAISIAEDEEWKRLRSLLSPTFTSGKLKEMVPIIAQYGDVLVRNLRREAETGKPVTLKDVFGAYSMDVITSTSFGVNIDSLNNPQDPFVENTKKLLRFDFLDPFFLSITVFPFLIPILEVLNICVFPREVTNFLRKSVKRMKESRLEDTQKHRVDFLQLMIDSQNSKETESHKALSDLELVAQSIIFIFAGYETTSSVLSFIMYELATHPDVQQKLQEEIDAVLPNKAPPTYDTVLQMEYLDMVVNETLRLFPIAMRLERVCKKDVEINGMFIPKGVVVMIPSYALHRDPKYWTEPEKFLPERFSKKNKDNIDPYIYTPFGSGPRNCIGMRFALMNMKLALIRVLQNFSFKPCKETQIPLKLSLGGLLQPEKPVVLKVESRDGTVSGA

[3] = molecular target: T1, Phosphatidylinositol 4,5-bisphosphate 3-kinase catalytic subunit delta isoform (Homo sapiens, UniProt O00329); assay: Inhibition of PI3K delta (unknown origin) using PIP2 as substrate measured after 1 hr in presence of ATP by ADP-glo luminescence assay
T1 sequence (O00329 whole entry): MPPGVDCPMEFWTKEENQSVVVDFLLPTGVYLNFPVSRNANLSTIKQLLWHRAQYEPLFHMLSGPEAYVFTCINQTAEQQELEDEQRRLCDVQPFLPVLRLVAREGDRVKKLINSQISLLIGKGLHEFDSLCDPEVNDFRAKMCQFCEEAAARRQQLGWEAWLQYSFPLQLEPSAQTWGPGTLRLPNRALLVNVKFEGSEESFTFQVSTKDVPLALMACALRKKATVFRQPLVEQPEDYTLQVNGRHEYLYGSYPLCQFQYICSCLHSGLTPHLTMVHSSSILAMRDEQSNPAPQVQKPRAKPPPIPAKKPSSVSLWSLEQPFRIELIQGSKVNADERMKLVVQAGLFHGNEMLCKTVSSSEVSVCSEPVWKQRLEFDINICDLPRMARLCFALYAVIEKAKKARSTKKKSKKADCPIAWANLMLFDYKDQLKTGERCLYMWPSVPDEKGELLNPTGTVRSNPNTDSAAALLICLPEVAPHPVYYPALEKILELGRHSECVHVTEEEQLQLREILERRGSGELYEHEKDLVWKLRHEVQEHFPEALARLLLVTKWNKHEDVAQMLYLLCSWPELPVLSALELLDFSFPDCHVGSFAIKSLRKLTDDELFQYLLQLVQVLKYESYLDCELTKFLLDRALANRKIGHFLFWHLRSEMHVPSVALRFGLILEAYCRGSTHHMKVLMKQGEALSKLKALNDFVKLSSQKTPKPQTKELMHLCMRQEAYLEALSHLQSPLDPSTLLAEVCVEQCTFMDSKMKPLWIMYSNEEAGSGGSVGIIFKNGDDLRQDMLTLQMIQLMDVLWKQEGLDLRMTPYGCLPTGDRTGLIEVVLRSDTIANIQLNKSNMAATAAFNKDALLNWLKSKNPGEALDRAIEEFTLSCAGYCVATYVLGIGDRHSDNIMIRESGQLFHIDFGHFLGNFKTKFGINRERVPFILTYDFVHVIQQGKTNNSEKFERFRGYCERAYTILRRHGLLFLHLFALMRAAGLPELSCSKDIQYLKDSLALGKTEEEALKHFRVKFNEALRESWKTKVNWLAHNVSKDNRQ

[4] = molecular target: Phosphatidylinositol 4,5-bisphosphate 3-kinase catalytic subunit beta isoform (Homo sapiens, UniProt P42338); assay: Inhibition of PI3Kbeta (unknown origin) using PIP2 as substrate measured after 1 hr in presence of ATP by ADP-glo luminescence assay
Phosphatidylinositol 4,5-bisphosphate 3-kinase catalytic subunit beta isoform, sequence (P42338 whole entry, canonical isoform): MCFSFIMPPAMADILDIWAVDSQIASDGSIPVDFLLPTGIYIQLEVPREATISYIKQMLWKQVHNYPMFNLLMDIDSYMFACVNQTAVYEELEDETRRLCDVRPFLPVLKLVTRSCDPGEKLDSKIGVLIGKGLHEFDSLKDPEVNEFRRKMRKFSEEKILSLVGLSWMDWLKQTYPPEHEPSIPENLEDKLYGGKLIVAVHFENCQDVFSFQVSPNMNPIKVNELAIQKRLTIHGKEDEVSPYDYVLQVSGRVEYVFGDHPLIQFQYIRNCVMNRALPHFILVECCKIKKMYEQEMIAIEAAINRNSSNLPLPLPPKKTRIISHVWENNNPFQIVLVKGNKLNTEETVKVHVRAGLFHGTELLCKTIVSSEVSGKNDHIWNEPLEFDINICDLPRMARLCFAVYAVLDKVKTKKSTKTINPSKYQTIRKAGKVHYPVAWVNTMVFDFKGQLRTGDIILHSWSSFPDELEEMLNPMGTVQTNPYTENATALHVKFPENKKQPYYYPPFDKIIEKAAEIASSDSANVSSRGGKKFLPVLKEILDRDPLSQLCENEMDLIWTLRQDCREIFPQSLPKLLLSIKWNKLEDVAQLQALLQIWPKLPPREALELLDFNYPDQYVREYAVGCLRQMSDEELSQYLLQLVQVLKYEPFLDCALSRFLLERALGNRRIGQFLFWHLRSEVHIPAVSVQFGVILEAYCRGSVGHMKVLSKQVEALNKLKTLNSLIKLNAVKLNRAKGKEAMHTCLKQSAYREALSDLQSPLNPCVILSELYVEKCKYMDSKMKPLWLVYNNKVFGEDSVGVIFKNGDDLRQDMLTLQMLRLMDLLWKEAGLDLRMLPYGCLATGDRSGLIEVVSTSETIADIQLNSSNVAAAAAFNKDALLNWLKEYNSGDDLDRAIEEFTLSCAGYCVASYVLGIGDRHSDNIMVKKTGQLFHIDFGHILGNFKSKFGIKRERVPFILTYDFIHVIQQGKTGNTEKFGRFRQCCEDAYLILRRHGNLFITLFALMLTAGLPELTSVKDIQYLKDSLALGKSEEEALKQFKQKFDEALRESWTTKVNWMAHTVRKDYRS

CYP2D6 = CYP2D6 (Homo sapiens, UniProt P10635); assay: Inhibition of CYP2D6 (unknown origin) at 10 uM relative to control; assay type: ADME
CYP2D6, sequence (P10635 whole entry): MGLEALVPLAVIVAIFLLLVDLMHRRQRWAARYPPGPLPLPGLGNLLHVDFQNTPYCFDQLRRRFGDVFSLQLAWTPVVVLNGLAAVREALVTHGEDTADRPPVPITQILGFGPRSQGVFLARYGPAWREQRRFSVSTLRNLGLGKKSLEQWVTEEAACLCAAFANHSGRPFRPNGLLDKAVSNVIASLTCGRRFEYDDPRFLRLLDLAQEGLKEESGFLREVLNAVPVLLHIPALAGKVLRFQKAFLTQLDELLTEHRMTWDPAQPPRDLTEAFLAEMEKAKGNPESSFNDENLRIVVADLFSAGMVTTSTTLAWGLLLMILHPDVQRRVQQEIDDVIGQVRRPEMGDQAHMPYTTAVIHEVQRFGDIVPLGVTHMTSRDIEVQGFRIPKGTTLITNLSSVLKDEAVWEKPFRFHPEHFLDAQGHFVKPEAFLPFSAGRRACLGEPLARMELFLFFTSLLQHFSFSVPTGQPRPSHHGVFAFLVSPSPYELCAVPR

CYP1A2 = molecular target: T2, CYP1A2 (Homo sapiens, UniProt P05177); assay: Inhibition of CYP1A2 (unknown origin) at 10 uM relative to control; assay type: ADME
T2 sequence (P05177 whole entry): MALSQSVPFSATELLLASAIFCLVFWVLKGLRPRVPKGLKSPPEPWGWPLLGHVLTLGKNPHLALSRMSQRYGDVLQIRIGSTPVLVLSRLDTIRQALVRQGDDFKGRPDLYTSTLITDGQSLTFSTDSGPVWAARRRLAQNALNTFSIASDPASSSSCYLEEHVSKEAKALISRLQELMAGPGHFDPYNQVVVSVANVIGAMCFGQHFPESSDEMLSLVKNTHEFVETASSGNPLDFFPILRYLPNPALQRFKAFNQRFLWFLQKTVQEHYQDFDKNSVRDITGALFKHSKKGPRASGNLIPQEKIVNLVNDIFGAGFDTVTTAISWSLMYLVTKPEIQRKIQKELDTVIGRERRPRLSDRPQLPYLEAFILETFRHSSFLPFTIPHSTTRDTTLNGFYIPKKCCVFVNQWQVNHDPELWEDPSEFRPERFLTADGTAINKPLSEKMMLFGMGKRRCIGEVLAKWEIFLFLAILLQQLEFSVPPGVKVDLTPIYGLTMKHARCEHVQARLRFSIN

hERG (KCNH2) = hERG (KCNH2) (Homo sapiens, UniProt Q12809); assay: Inhibition of human ERG at 20 uM relative to control; assay type: toxicity
CYP2C9 = CYP2C9 (Homo sapiens, UniProt P11712); assay: Inhibition of CYP2C9 (unknown origin) at 10 uM relative to control; assay type: ADME
CYP2C9, sequence (P11712 whole entry, canonical isoform): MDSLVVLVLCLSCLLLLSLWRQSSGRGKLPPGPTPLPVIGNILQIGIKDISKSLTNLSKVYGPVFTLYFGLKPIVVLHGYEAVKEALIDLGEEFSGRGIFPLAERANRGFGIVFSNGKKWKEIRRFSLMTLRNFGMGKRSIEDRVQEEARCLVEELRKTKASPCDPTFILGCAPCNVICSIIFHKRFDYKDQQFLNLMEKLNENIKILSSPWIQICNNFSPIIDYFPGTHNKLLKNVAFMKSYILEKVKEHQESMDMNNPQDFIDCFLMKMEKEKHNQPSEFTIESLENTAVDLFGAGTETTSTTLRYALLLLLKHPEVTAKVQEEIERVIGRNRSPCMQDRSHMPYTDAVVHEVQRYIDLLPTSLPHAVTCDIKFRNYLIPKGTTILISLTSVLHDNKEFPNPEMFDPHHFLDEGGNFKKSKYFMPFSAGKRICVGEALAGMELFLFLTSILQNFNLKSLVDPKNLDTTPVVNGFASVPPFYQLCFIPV

[5] = molecular target: Phosphatidylinositol 4,5-bisphosphate 3-kinase catalytic subunit gamma isoform (Homo sapiens, UniProt P48736); assay: Inhibition of PI3K gamma (unknown origin) using PIP2 as substrate measured after 1 hr in presence of ATP by ADP-glo luminescence assay
Phosphatidylinositol 4,5-bisphosphate 3-kinase catalytic subunit gamma isoform, sequence (P48736 whole entry, canonical isoform): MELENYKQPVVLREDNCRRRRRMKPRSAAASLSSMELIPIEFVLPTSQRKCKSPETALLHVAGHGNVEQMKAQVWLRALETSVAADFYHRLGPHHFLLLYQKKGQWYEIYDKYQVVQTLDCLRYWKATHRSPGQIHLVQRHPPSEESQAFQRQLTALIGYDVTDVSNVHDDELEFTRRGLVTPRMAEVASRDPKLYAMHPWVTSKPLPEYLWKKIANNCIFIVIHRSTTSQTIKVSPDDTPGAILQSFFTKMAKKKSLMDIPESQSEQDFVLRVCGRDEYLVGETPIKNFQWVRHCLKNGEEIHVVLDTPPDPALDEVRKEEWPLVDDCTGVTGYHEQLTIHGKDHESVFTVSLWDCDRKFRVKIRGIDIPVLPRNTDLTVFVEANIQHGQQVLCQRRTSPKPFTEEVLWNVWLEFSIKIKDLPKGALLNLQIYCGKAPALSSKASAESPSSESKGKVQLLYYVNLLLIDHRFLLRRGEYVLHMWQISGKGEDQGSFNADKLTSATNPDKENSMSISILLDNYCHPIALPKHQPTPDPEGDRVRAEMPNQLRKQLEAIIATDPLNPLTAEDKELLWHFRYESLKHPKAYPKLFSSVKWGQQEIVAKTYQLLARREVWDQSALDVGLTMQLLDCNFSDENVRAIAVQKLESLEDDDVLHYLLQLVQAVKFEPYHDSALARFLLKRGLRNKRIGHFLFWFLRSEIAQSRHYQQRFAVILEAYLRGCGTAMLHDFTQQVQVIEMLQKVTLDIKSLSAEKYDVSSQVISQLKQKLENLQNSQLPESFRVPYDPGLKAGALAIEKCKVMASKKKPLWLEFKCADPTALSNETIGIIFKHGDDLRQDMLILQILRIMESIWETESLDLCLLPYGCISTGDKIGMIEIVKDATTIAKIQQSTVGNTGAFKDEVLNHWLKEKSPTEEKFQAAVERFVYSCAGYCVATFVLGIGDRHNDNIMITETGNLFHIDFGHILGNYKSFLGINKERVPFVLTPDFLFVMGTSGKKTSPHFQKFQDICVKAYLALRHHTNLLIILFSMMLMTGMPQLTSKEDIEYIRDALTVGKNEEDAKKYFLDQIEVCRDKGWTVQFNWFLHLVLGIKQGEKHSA

[6] = Toxicity in 8 hrs fasted ICR mouse assessed as effect on blood glucose level at 20 mg/kg, iv measured upto 240 mins by glucometer analysis; assay type: organism-based; settings: in vivo, 4 h
[7] = Toxicity in nude male Balb/c mouse assessed as effect on body weight at 20 mg/kg, po administered daily for 2 weeks; assay type: organism-based; settings: in vivo, 336 h

Phosphatidylinositol 4,5-bisphosphate 3-kinase catalytic subunit alpha isoform, sequence (P42336 whole entry, canonical isoform): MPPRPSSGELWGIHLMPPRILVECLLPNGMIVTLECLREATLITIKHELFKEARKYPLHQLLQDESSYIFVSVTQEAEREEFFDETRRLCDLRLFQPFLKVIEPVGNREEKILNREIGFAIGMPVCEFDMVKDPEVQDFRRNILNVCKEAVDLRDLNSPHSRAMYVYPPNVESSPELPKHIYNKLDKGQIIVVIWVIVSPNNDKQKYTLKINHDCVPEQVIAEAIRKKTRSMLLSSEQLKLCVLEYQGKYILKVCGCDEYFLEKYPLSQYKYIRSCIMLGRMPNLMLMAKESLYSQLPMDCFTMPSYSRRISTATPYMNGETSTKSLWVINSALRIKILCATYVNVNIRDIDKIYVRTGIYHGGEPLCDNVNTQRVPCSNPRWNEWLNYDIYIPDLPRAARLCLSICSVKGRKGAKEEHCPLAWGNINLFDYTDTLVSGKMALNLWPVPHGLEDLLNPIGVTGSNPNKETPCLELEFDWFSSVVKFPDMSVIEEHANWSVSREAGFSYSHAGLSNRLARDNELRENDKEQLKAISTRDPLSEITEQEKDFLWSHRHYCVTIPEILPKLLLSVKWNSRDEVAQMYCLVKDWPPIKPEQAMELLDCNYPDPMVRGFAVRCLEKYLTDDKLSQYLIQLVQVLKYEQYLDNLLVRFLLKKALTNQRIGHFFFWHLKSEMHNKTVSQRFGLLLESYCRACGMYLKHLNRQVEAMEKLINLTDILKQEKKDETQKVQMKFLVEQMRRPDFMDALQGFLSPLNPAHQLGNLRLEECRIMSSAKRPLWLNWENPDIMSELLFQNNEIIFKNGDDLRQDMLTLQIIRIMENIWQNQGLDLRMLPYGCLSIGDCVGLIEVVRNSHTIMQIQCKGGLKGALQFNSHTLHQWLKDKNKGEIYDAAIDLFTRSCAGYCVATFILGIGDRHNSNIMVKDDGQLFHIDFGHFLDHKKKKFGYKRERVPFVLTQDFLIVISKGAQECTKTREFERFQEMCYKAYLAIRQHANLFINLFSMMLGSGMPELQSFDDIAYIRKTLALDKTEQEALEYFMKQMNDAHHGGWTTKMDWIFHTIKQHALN

IC50 [1] | IC50 [2] | IC50 [3] | IC50 [4] | IC50 [5] | SMILES | other results
– | 24.3 nM | 106 nM | 35.4 nM | 123 nM | O=C(c1ccc(NC(=S)Nc2ccc(-c3nc(N4CCOCC4)nc(N4CCOCC4)n3)cc2)cc1)N1CCC[C@H]1CO | –
– | 4.9 nM | 34.1 nM | 42.5 nM | 32.3 nM | O=C(Nc1ccc(C(=O)N2CCC[C@@H]2CO)cc1)Nc1ccc(-c2nc(N3CCOCC3)nc(N3CCOCC3)n2)cc1 | –
70.4 nM | – | – | – | – | O=C(c1ccc(NC(=S)Nc2ccc(-c3nc(N4CCOCC4)nc(N4CCOCC4)n3)cc2)cc1)N1CCCCC1CO (stereo unspecified) | –

Continued, compound first:

SMILES | IC50 [1] | IC50 [2] | IC50 [3] | IC50 [4] | IC50 [5] | other results
O=C(c1ccc(NC(=S)Nc2ccc(-c3nc(N4CCOCC4)nc(N4CCOCC4)n3)cc2)cc1)N1CCCC(CO)C1 (stereo unspecified) | 36.6 nM | – | – | – | – | IC50 (PC-9): 4.32 µM; IC50 (HCC827): 1.98 µM
O=C(Nc1ccc(C(=O)N2CCC[C@H]2CO)cc1)Nc1ccc(-c2nc(N3CCOCC3)nc(N3CCOCC3)n2)cc1 | – | 2.9 nM | 9.3 nM | 1.1 nM | 4.8 nM | inhibition at 10 µM (CYP3A4): 20%; inhibition at 10 µM (CYP2D6): 25%; inhibition at 10 µM (CYP1A2): 10%; inhibition at 20 µM (hERG (KCNH2)): 15%; inhibition at 10 µM (CYP2C9): 15%
CN1CCN(C(=O)c2ccc(NC(=S)Nc3ccc(-c4nc(N5CCOCC5)nc(N5CCOCC5)n4)cc3)cc2)CC1 | – | 127 nM | 338 nM | 169 nM | 657 nM | –
O=C(c1ccc(NC(=S)Nc2ccc(-c3nc(N4CCOCC4)nc(N4CCOCC4)n3)cc2)cc1)N1CCN(C(=O)C2CCCO2)CC1 (stereo unspecified) | 20.3 nM | – | – | – | – | IC50 (PC-9): 32.7 µM; IC50 (HCC827): 19.8 µM
CN(C)C1CCN(C(=O)c2ccc(NC(=O)Nc3ccc(-c4nc(N5CCOCC5)nc(N5CCOCC5)n4)cc3)cc2)CC1 [GEDATOLISIB] | – | – | – | – | – | Activity [6]: Toxic; Activity [7]: Non-toxic
COc1ncc(-c2ccc3nccc(-c4ccnnc4)c3c2)cc1NS(=O)(=O)c1ccc(F)cc1F [OMIPALISIB] | – | – | – | – | 0.86 nM | –
